≈ marks a conversion by molar mass, not a printed value. Entries after “also recorded” stand apart in the source; their conditions may differ. Like-named read-outs stand apart in the source and are kept apart here. Peptide text beside a SMILES is read from it. * marks the point of attachment. Cbz = O=C(OCc1ccccc1)*
What was measured:
proteasome = experiment: Rescue of PDP 16 pirin depletion by proteasome inhibitor in SK-OV-3 cells; assay type: cell-based, human; conditions: 500 nM, 4 h pretreatment, then PDP 16 24 h
Experimental: (§1) in vivo in athymic mice to increase its tumorigenicity and reliability as a xenograft, and used within 10 passages of banked stocks.
(§2) Prior to use, the cells were analyzed by short tandem repeat (STR) profiling. Polymorphic STR loci were amplified using a polymerase chain reaction (PCR) primer set. The PCR product (each locus being labelled with a different fluorophore) was analyzed simultaneously with size standards using automated fluorescent detection. The number of repeats at 10 different loci (as recommended by the American Type Culture Collection, ATCC) was used to define the STR profile and this was cross-referenced with online databases to confirm authenticity. […]
(§3) the ATCC reference line (LGC Promochem, UK). […]
(§4) nested PCR protocol (Venor GeM kit, Minerva Biolabs, Germany). Cells were grown in DMEM/10 % FCS, 2 mM glutamine and nonessential amino acids in 5 % CO2.
(§5) SK-OV-3 cells were treated as for each experimental condition. Cells were harvested and lysed by scraping in urea lysis buffer (20 mM HEPES pH 8.0, 9 M urea, 1 mM sodium orthovanadate, 2.5 mM sodium pyrophosphate, 1 mM β-glycerophosphate). […]
of samples was determined using a bicinchoninic acid (BCA) protein assay kit (Thermo Fisher Scientific). […]
Samples were treated, harvested and lysed as described above. […] The data was analyzed with the Compass software (ProteinSimple). […]

[1] = LogD7.4 determination by RP-HPLC; conditions: pH 7.4
CRBN-DDB1 complex = target: T1, CRBN-DDB1 complex (Homo sapiens, UniProt Q96SW2); experiment: CRBN/DDB1 fluorescence polarization competition assay; assay type: binding; conditions: for Ki: calculated from geometric mean CRBN-DDB1 IC50 and FP-probe KD
T1 construct: His6-ZZ-HRV3C (N); made in house; host or cells: Sf9 insect cells (baculovirus co-infection)
Experimental: CRBN/DDB1 Fluorescence Polarization Assay […]
Unless otherwise stated, the aqueous assay buffer contained 0.02 M HEPES((4-(2-hydroxyethyl)-1-piperazineethanesulfonic acid)) pH 8.0, 0.15 M NaCl, 0.5 mM TCEP ((tris(2-carboxyethyl)phosphine)), 0.05% Tween 20. The assay was conducted using 384 well black plates (ProxiPlate F Plus, Perkin-Elmer, Massachusetts, USA).
Plate Reader. […] Fluorescence […]
polarization was measured in units of millipolarization (mP) and are background corrected. Data were plotted and analyzed using […]
All experiments were performed in triplicate unless otherwise stated. Values are quoted as the geometric […]
Each graph is a representative example of a single biological repeat unless otherwise stated.
CRBN/DDB1 Protein Expression & Purification
Protein expression and purification methods adapted from Lopez-Girona et al.5 Full length human CRBN (accession number NM016302) was amplified by PCR & inserted downstream of the polyhedrin promoter of a pFBDM expression vector which had been modified to introduce a N-terminal His6-ZZ-HRV3C tag. Full length human DDB1 (accession number NM001923) was amplified by PCR with primers which introduced a C-terminal StrepTag and inserted downstream of the p10 promoter of a separate pFBDM expression vector. Baculoviruses were generated according to Bac-to-Bac protocols (Invitrogen) and used to co-infect Sf9 cells grown @ 27 °C in shaker flasks using Insect-XPRESS media (Lonza). Cells were harvested 48 hours post infection and frozen. For purification, pellets were thawed & resuspended in 5 volumes of Histrap buffer A (see below) and lysed […]
Superdex 200 (HiLoad 26/600), ResourceQ (6 mL) and finally a second Superdex 200 (HiLoad 26/600) column. All columns were from GE Healthcare and all purification steps were performed @ 4 °C. HisTrap buffer A: 50mM Tris (2-Amino-2-(hydroxymethyl)propane-1,3-diol), 500mM NaCl, 0.5mM TCEP ((tris(2-carboxyethyl)phosphine), 5% glycerol, pH 8.0. HisTrap Buffer B: + 250 mM imidazole. Superdex 200 buffer: 50mM Tris, 200mM NaCl, 0.5mM TCEP, 5% glycerol, pH 8.0. Resource Q buffer A: 50mM Tris, 0.5mM TCEP, 5% Glycerol, pH8.0. Resource Q buffer B + 1M NaCl.
California, USA) to prepare CRBN/DDB1 concentrations from 0.1 to 500 nM in 10 µL final assay volume containing 5 nM FP- […]
point prior to analysis. The KD was calculated using non-linear regression and a one-site specific binding model.
Analysis of competition assay FP-probe bound fraction […]
fb=probe bound fraction, KD=probe dissociation constant, L0=probe concentration, R0=protein concentration, Ki=ligand […]
CRBN/DDB1 Competition Assay
Compounds as solutions in DMSO were dispensed using an ECHO 550 Liquid Handler (Labcyte Inc).
Tracer controls (5 nM FP-probe S18 assay buffer only) and bound tracer controls (5 nM and 80 nM CRBN/DDB1) were included on each assay plate . Plates were incubated overnight at 4 °C before warming to room temperature and fluorescence polarization measured using an EnVision plate reader (Perkin -Elmer, Massachusetts, USA). IC 50 values […]
Table S2. CRBN/DDB1 Control Compounds

[2] = target: T2, pirin protein in SK-OV-3 human ovarian cancer cells (Homo sapiens, UniProt O00625); experiment: Pirin depletion in SK-OV-3 cells (immunoblot / capillary electrophoresis immunoassay); assay type: cell-based
T2 construct: endogenous in cells; host or cells: SK-OV-3
T2 sequence (O00625 1-290): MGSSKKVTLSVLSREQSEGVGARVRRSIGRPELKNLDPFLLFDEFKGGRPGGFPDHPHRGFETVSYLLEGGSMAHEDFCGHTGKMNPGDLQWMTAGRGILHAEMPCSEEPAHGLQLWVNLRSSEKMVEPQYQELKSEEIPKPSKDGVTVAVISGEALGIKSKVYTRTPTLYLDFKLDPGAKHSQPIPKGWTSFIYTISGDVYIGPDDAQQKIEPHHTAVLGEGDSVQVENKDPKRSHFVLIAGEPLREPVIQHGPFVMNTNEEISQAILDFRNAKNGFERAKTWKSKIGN
Experimental: as §1, §2, §3, §4, §5
(§6) of samples was determined using a bicinchoninic acid (BCA) protein assay kit (Thermo Fisher Scientific). Western blotting was carried out as previously described.10 Pirin and GAPDH antibodies were obtained from Abcam (ab157212) and Merck […]
(§7) Samples were treated, harvested and lysed as described above. A total of 5 μL of 0.2 mg/mL protein was loaded into plates and capillary western analysis was carried out according to the manufacturer’s instructions (ProteinSimple WES). The data was analyzed with the Compass software (ProteinSimple).
(§8) Sigma-Aldrich and Cell Signaling Technology, respectively.
(§9) 10 Sharp SY, Boxall K, Rowlands M, Prodromou C, Roe SM, Maloney A, Powers M, Clarke PA, Box G, Sanderson S, Patterson L, Matthews TP, Cheung KM, Ball K, Hayes A, Raynaud F, Marais R, Pearl L, Eccles S, Aherne W, McDonald E, Workman P. In vitro biological characterization of a novel, synthetic diaryl pyrazole resorcinol class of heat shock protein 90 inhibitors.

[3] = PDP aqueous stability protocol; conditions: for half-life at 100 µM: phosphate buffer (PBS)
[4] = Kinetic solubility determination by RP-HPLC; conditions: PBS, pH 7.4, aqueous buffer, kinetic from dmso stock
pirin [5] = target: T3, pirin (Homo sapiens, UniProt O00625); experiment: Pirin SPR (surface plasmon resonance) binding; conditions: for Measured Rmax/Theoretical Rmax: SPR
T3 sequence (O00625 1-290): T2 sequence (O00625 1-290)

pirin [6] = target: T3, pirin; experiment: Intracellular competition: rescue of PDP 16 pirin depletion by pirin ligands in SK-OV-3 cells; assay type: cell-based; parameters: endogenous in cells; host or cells: SK-OV-3
Experimental: as §1, §2, §3, §4, §5, §6, §7, §8, §9

[7] = CRBN/DDB1 FP IC50, single repeat N=2, best-fit value, variable slope four parameters
[8] = best-fit value, variable slope four parameters, read-out: CRBN/DDB1 FP IC50, single repeat N=1
[9] = best-fit value, variable slope four parameters, read-out: CRBN/DDB1 FP IC50, single repeat N=3
[10] = displacement of thalidomide derived fluorescent probe, geometric mean n = 3, read-out: CRBN/DDB1 FP IC50
[11] = Pirin SPR KD, equilibrium analysis, one site specific binding model, geometric mean n = 3
[12] = Pirin SPR KD, representative single repeat, best-fit value, one site specific binding
[13] = Pirin SPR pKD, mean of 3 values (unrounded), column statistics
[14] = Pirin SPR pKD±SEM, n = 3 independent biological repeats
[15] = 4 h pretreatment, then PDP 16 for 2 h, SK-OV-3, Figure 4

Kd (pirin [5]; [14]) [nM] | Structure (SMILES) | chromatographic logD [1] | IC50 (CRBN-DDB1 complex; [7]) [nM] | IC50 (CRBN-DDB1 complex; [8]) [nM] | IC50 (CRBN-DDB1 complex; [9]) [nM] | Ki (CRBN-DDB1 complex) [nM] | IC50 (CRBN-DDB1 complex; [10]) [nM] | solubility kinetic at 120 min [4] [µM] | Kd (pirin [5]; [11]) [nM] | Kd (pirin [5]; [12]) [nM] | Kd (pirin [5]; [13]) [nM] | Measured Rmax/Theoretical Rmax (pirin [5]) | other results
– | CC(C)C[C@@H](C=O)NC(=O)[C@H](CC(C)C)NC(=O)[C@H](CC(C)C)NC(=O)OCc1ccccc1 [MG132] (Cbz-Leu-Leu-Leu-aldehyde) | – | – | – | – | – | – | – | – | – | – | – | Rescue of pirin degradation by MG132 preincubation (proteasome): rescue
> 1260 | O=C1CCC(N2C(=O)c3cccc(OCCOCCOCCN4CCN(Cc5ccc6cc(C(=O)Nc7cc(NC(=O)c8cccc9c8OCCO9)ccc7Cl)ccc6n5)CC4)c3C2=O)C(=O)N1 (centres unmarked) [PDP 21, N-(2-Chloro-5-(2,3-dihydrobenzo[b][1,4]dioxine-5-carboxamido)phenyl)-2-((4-(2-(2-(2-((2-(2,6-dioxopiperidin-3-yl)-1,3-dioxoisoindolin-4-yl)oxy)ethoxy)ethoxy)ethyl)piperazin-1-yl)methyl)quinoline-6-carboxamide] | 2.9 | 277 | 590 | 444 | 98 | 420 | 2 (≈ 1.89 µg/mL) | > 1300 | – | – | – | Pirin depletion by negative control ([2]; SK-OV-3 cells, 24 h treatment, Western blot, Figure S19): does not deplete pirin protein; also recorded: no pirin depletion; half-life at 100 µM ([3]; pH 7.4, Half-life (aqueous stability), 37 °C, pH 7.4 phosphate buffer): 2.8 h
– | Cc1ccc(NC(=O)c2ccc3c(c2)OCCO3)cc1NC(=O)c1ccc2nc(OCCN3CCCC3)ccc2c1 [chemical probe 1] | – | – | – | – | – | – | – | – | – | – | – | Stability in pH 7.4 phosphate buffer ([3]; 37 °C, pH 7.4 phosphate buffer): no instability
20.9 | CCN1CCN(Cc2ccc3cc(C(=O)Nc4cc(NC(=O)c5ccc6c(c5)OCCO6)ccc4Cl)ccc3n2)CC1 [chlorobisamide 22, N-(2-Chloro-5-(2,3-dihydrobenzo[b][1,4]dioxine-6-carboxamido)phenyl)-2-((4-ethylpiperazin-1-yl)methyl)quinoline-6-carboxamide] | – | – | – | – | – | – | – | – | 19.9 | 20.8 | 0.29 | Concentration giving complete rescue of pirin expression (pirin [6]; [15]): 1 µM; Rescue of pirin expression following treatment with PDP 16 (pirin [6]; [15]): concentration-dependent rescue of pirin expression; Competition of PDP 16 at 6 h exposure (pirin [6]; concentration > 1 μM, data not shown): unsuccessful

Structure (SMILES) | Kd (pirin [5]; [14]) [nM] | chromatographic logD [1] | IC50 (CRBN-DDB1 complex; [7]) [nM] | IC50 (CRBN-DDB1 complex; [8]) [nM] | IC50 (CRBN-DDB1 complex; [9]) [nM] | Ki (CRBN-DDB1 complex) [nM] | IC50 (CRBN-DDB1 complex; [10]) [nM] | solubility kinetic at 120 min [4] [µM] | Kd (pirin [5]; [11]) [nM] | Kd (pirin [5]; [12]) [nM] | Kd (pirin [5]; [13]) [nM] | Measured Rmax/Theoretical Rmax (pirin [5]) | other results
Cc1ccc(NC(=O)c2ccc3c(c2)OCCO3)cc1NC(=O)c1ccc2nc(OCCCC(=O)NCCOCCNC(=O)COc3cccc4c3C(=O)N(C3CCC(=O)NC3=O)C4=O)ccc2c1 (centres unmarked) [PDP 3, N-(5-(2,3-Dihydrobenzo[b][1,4]dioxine-6-carboxamido)-2-methylphenyl)-2-(4-((2-(2-(2-((2-(2,6-dioxopiperidin-3-yl)-1,3-dioxoisoindolin-4-yl)oxy)acetamido)ethoxy)ethyl)amino)-4-oxobutoxy)quinoline-6-carboxamide] | 107 | 2.2 | 496 | 1510 | 811 | 220 | 850 | 1 (≈ 0.942 µg/mL) | 110 | 111 | 108 | 0.44 | IC50 (CRBN-DDB1 complex; column statistics, read-out: CRBN/DDB1 FP pIC50, mean of 3 values (unrounded) (converted)): 847 nM; Effects on SK-OV-3 cells ([2]; >1 μM, >48 h, data not shown): no measurable effects on the cancer cells; half-life at 100 µM ([3]; pH 7.4): 7.2 h

Reference: publication PMC5815658 (Journal of Medicinal Chemistry, 2017)
